Values quoted from earlier work as cited in patent publication US5385929A, “[(Hydroxyphenylamino) carbonyl] pyrroles” (Warner-Lambert Company, priority 1994, dated 1995).

Tested on: biosynthesis of cholesterol
Conditions: qualitative; described in U.S. Pat. No. 5,273,995

## CC(C)c1c(C(=O)Nc2ccccc2)c(-c2ccccc2)c(-c2ccc(F)cc2)n1CC[C@@H](O)C[C@@H](O)CC(=O)O [Compound of Patent 5,273,995 (open form), [R-(R*,R*)]-2-(4-fluorophenyl)-β,δ-dihydroxy-5-(1-methylethyl)-3-phenyl-4-[(phenylamino)carbonyl]-1H-pyrrole-1-heptanoic acid]
  activity as a hypocholesterolemic agent: particularly active as a hypocholesterolemic agent
